Entries after “also recorded” stand apart in the source; their conditions may differ.
What was measured:
[1] = test system: LMWH Tinzaparin; test: APTT assay, neutralization of LMWH Tinzaparin in citrate plasma; type: biochemical, human
Protocol: Citrate plasma was anti-coagulated with 2.0 U/ml LMWH (LMWH control) and was titrated with different concentrations of JNK-1 polymers (0.009 to 8.69 nanomoles/ml) (FIG. 4A) and protamine (0.2 to 222.2 nanomoles/ml) (FIG. 4B).
(§1) Citrate plasma was anticoagulated with 2.0 U/ml UFH, Enoxaparin and Tinzaparin and was treated with different concentrations of the HBSPCM polymers and protamine (0.001 to 0.25 mg/ml). The APTT was measured for each sample.
(§2) Citrate plasma was anticoagulated with UFH (2.0 IU/mL), Enoxaparin (2.0 IU/mL) and Tinzaparin (1.14 IU/mL) and was titrated with different concentrations of the HBSPCM polymers and protamine (0.001 to 0.25 mg/ml). The APTT was measured for each sample.
Ability of HBSPCM polymers JNK-9, JNK-10 and JNK-11 was studied for the range of concentration from 0.01 to 0.25 mg/mL prepared in 0.15 M saline. Citrated blood was spun at 3000 RPM for 10 min to obtain platelet poor plasma (PPP). The PPP was then heparinized by adding 45 μL of heparin (UFH, LMWH etc.) to 2200 μL of PPP final concentration of 2.0 IU/mL for UFH and Tinzaparin and 1.14 IU/mL for Enoxaparin. Normal control was prepared by adding 25 μL of 0.15 M saline to 250 μL of PPP. 25 μL of each antidote solution (polymer or protamine) was added to 225 μL of heparinized PPP. 250 μL of APTT reagent (actin FSL) was then added and samples were incubated for 3 min at 37° C. […]

[2] = test system: LMWH Tinzaparin; test: Thromboelastography (TEG), neutralization of LMWH Tinzaparin in whole blood; type: cell-based; settings: human whole blood; for clot strength (maximum amplitude, MA) with Tinzaparin: antidote at higher concentration (0.25 mg/ml)
Protocol: (§3) This example examines thromboelastography in the presence of various heparin binders. Thromboelastography (TEG) provides an in vitro method for monitoring of the evolution of the viscoelastic properties and coagulation kinetics of blood as clotting proceeds. The principle components of the TEG are a cylindrical cup and a bob suspended in the cup from a weak torsion wire. The warmed cup oscillates over a 10 second period through an angle of 4° 45′. Blood is added and a torque is transmitted to the bob as the gel forms. The rate of clot formation, the strength of the clot, and the rate of clot lysis are reflected in the shape traced out by the maxima in the bob oscillation as a function of time (the trace of the TEG). The clot's physical properties, i.e. rate of clot formation, clot strength, and stability are dependent on the interaction of fibrinogen, platelets, and plasma proteins. TEG studies yield the cumulative effect of several components of coagulation (global homeostasis) as a function of time.
(§4) To carry out TEG experiments, citrate anti-coagulated whole blood with heparin or heparin derivatives added are incubated with buffered HBSPCM polymers (sodium citrate or saline) for 1 minute before recalcification at 37° C. Clot formation kinetics are monitored in a TEG machine (350 μl whole blood+35 μl polymer or control solution) at 37° C.
The coagulation time (FIG. 7A) and maximum clot strength, or maximum amplitude (MA) (FIG. 7B) are shown. Citrated whole blood was added to UFH or Tinzaparin (0.5 U/ml) and re-calcified at 37° C. in a TEG cup and monitored using a TEG machine. JNK-1 polymers or protamine at different concentrations were used as neutralizing agents.

[3] = test system: UFH; test: Thromboelastography (TEG), neutralization of UFH in whole blood; type: cell-based; settings: human whole blood, UFH 0.5 U/ml, re-calcified at 37° C
Protocol: as §3, with “The clot's physical properties, i.e. rate of clot formation, clot strength, and stability are dependent on the interaction of fibrinogen, platelets, and plasma proteins. TEG studies yield the cumulative effect of several components of coagulation (global homeostasis) as a function of time.” left out
as §4
The coagulation time (FIG. 7A) and maximum clot strength, or maximum amplitude (MA) (FIG. 7B) are shown. Citrated whole blood was added to UFH or Tinzaparin (0.5 U/ml) and re-calcified at 37° C. in a TEG cup and monitored using a TEG machine. […]

[4] = test system: blood coagulation; test: Blood compatibility by thromboelastograph (TEG); type: cell-based; settings: polymer concentration 0.5 mg/ml
Protocol: as §3
(§5) To carry out TEG experiments, citrate anti-coagulated whole blood with heparin or heparin derivatives added are incubated with buffered HBSPCM polymers (sodium citrate or saline) for 1 minute before recalcification at 37° C. Clot formation kinetics are monitored in a TEG machine (350 μl whole blood+35 μl polymer or control solution) at 37° C. […]

[5] = test system: Tinzaparin; test: LMWH Tinzaparin neutralization in living rats (anti-Xa assay); type: in vivo, rat; settings: 25 U Tinzaparin, then about 1 mg polymer or protamine (3 mg/kg)
Protocol: The present example examines heparin binding polymer effectiveness in vivo. HBSPCM polymers were tested for their ability to neutralize UFH and LMWH in living rats. Rats were first injected with heparin or heparin derivative, and then injected with the JNK-1 polymers, protamine or saline control to neutralize the previously administered heparin or heparin derivative. Neutralization was measured by detecting the percentage of factor Xa using an anti-Xa assay as a measure of anticoagulant activity.
In addition, Enoxaparin alone and JNK-1 polymers+Enoxaparin were compared (FIG. 8C). An anti-Xa assay was used to measure heparin activity in rat blood. In this pilot study, rats were injected with 25 U of UFH, Tinzaparin or Enoxaparin (0 minutes). Blood was collected after UFH, Tinzaparin, or Enoxaparin infusion (5 minutes). Approximately 1 mg of JNK-1 polymers or protamine (dose was 3 mg/kg) was injected at 7 minutes and the blood was collected at 12 minutes after UFH/Tinzaparin/Enoxaparin infusion (5 minutes after JNK-1 infusion), and 17 minutes (10 minutes after JNK-1 polymer infusion). For subjects receiving Enoxaparin, blood was collected at additional time points (25 minutes and 30 minutes). Blood samples collected before the UFH, Enoxaparin or Tinzaparin infusion were used as a base control. […] Each data point shown reflects an average and standard deviation from five rats. […]

[6] = test system: Enoxaparin; test: Thromboelastography (TEG), neutralization of Enoxaparin in whole blood; type: cell-based; settings: human whole blood; JNK-5 and JNK-6 at 0.1 mg/ml
Protocol: as §3, §5

[7] = test system: blood coagulation; test: Blood coagulation: PT and APTT in platelet poor plasma; type: biochemical, human; settings: FIG. 15, compared to saline
Protocol: The present example examines blood coagulation in the presence of a heparin binding polymer. JNK-1 polymers were tested for blood compatibility using the activated partial thromboplastin time (APTT) and the prothrombin time (PT) in fresh human plasma. PT can be used to evaluate the extrinsic and common coagulation pathway and the results are expressed in seconds required for a fibrin clot to form after tissue thromboplastin (innovin) has been added to the blood sample. APTT is used to evaluate the intrinsic and common coagulation pathway. The results are expressed in seconds required for a fibrin clot to form in the plasma sample after a partial thromboplastin reagent (actin) and calcium chloride have been added to the sample. Blood was mixed with a measured amount of citrate and the plasma was obtained by centrifugation, using methods known in the art.
A final JNK-1 concentration of 10 mg/ml is used at in a 9:1 dilution of plasma at 37° C. Control experiments were done adding identical volumes of saline solution. JNK-1 polymer solutions were incubated with platelet poor plasma for 5 minutes at 37° C. before adding PT and APTT reagents.
Blood coagulation is measured using APTT.

[8] = test system: Enoxaparin; test: Anti Xa neutralization of Enoxaparin in platelet poor plasma; type: biochemical, human; settings: One IU LMWH per ml in platelet poor plasma
Protocol: (§6) Both JNK-1 and JNK-2 result in greater neutralization of unfractionated heparin at two doses (50 and 100 μg/ml), Tinzaparin (LMWH) and Enoxaparin (LMWH).

[9] = test system: unfractionated heparin (UFH); test: APTT assay, neutralization of UFH in citrate plasma; type: biochemical, human
Protocol: In one example, a heparin binding synthetic polyvalent cationic macromolecule JNK-1 can neutralize UFH in human blood under in vitro conditions (FIGS. 4A and 4B). Citrate plasma was anti-coagulated with 1.0 U/ml UFH (UFH control) and was titrated with different concentrations of JNK-1 polymers (0.009 to 8.69 nanomoles/ml) and protamine (0.2 to 222.2 nanomoles/ml).
as §1, §2
(§7) Ability of HBSPCM polymers JNK-9, JNK-10 and JNK-11 was studied for the range of concentration from 0.01 to 0.25 mg/mL prepared in 0.15 M saline. Citrated blood was spun at 3000 RPM for 10 min to obtain platelet poor plasma (PPP). The PPP was then heparinized by adding 45 μL of heparin (UFH, LMWH etc.) to 2200 μL of PPP final concentration of 2.0 IU/mL for UFH and Tinzaparin and 1.14 IU/mL for Enoxaparin. Normal control was prepared by adding 25 μL of 0.15 M saline to 250 μL of PPP. 25 μL of each antidote solution (polymer or protamine) was added to 225 μL of heparinized PPP. 250 μL of APTT reagent (actin FSL) was then added and samples were incubated for 3 min at 37° C. 250 μL of normal control was combined with 250 μL of APTT reagent and also incubated for 3 min. 50 μL of 0.025M CaCl2 was added to 100 μL aliquots of normal control and sample (in triplicate). A heparinized control containing 225 μL of PPP and 25 μL of saline was also prepared and run similar to normal control.

[10] = test system: complement system; test: Complement activation, CH50 sheep erythrocyte lysis assay; type: biochemical; settings: serum, 0.05 and 0.5 mg/mL, 1 h, 37° C
Protocol: The level of complement activation was measured by a CH50 sheep erythrocyte lysis assay. Ten microliter of each of the 0.5 and 5 mg/mL polymers or protamine was mixed with 90 μL of serum for 1 h at 37° C. The final concentration of polymer/protamine to serum was 0.05 and 0.5 mg/mL. One mg/mL heat-activated human IgG and 5 mM EDTA, after mixing with serum, were the positive and negative controls, respectively, for the study. 60 μL of post-incubation serum/polymer or protamine mixture was diluted by 120 μL of GVB^2+ (CompTech). Seventy-five microliter of GVB^2+ diluted serum/polymer or protamine mixture was incubated for 1 h at 37° C. with 75 μL of Ab-sensitized sheep erythrocyte (CompTech). The reaction was stopped by addition of 300 μL cold GVB-EDTA to each sample. The samples were centrifuged and the optical density of supernatant was measured at 540 nm. One hundred percent lysis of the sheep erythrocyte was done by dH2O. The percentage of complement activation was calculated by 100-% lysis of sheep erythrocytes.

[11] = test system: platelets; test: Platelet activation of 23 kDa HBSPCM polymers (CD62-PE, flow cytometry); type: cell-based; settings: PRP, 0.5 mg/mL, 1 h, 37° C
Protocol: The level of platelet activation was quantified by flow cytometry. Ninety microliter of PRP was incubated at 37° C. with 10 μL of 5 mg/mL of polymer or protamine (final concentration 0.5 mg/mL). After 1 h, aliquots of the incubation mixtures were removed for assessment of the platelet activation state. Five microliter of post-incubation platelet/polymer or protamine mixture, diluted in HEPES buffer, was incubated for 20 minutes in the dark with 5 μL of monoclonal anti-CD62-PE (Immunotech). The samples were then stopped with 0.5 mL of phosphate-buffered saline solution. The level of platelet activation was analyzed in a BD FACSCanto II flow cytometer (Becton Dickinson) by gating platelets specific events based on their FITC-CD42 fluorescence and light scattering profile. Activation of platelets was expressed as the percentage of platelet activation marker CD62-PE fluorescence detected in the 10,000 total events counted. Duplicate measurements were done, the mean of which was reported. Controls were done for the flow cytometric analysis. One U/ml of bovine thrombin (Sigma) was used as a positive control, and PE conjugated goat anti-mouse IgG polyclonal antibodies (Immunotech) was used as the non-specific binding control.

[12] = test system: Tinzaparin; test: Anti Xa neutralization of Tinzaparin in platelet poor plasma; type: biochemical, human; settings: One IU LMWH per ml in platelet poor plasma
Protocol: as §6

[13] = test system: blood
[14] = test system: LMWH Enoxaparin; test: APTT assay, neutralization of LMWH Enoxaparin in citrate plasma; type: biochemical, human; settings: Enoxaparin 2.0 U/ml or 1.14 IU/mL, 0.001 to 0.25 mg/ml
Protocol: as §1, §2
as §7, with “A heparinized control containing 225 μL of PPP and 25 μL of saline was also prepared and run similar to normal control.” left out

[15] = test system: UFH; test: Anti Xa neutralization of UFH in platelet poor plasma; type: biochemical, human; settings: One IU UFH per ml in platelet poor plasma
Protocol: as §6

protamine
LMWH Tinzaparin neutralization (APTT) ([1]; citrate plasma, Tinzaparin 2.0 U/ml or 1.14 IU/mL, 0.001 to 0.25 mg/ml): neutralizes UFH and LMWH only in the narrow concentration range
LMWH Tinzaparin neutralization (APTT) ([1]; human citrate plasma anti-coagulated with LMWH Tinzaparin (2.0 U/ml), titrated with JNK-1 0.009 to 8.69 or protamine 0.2 to 222.2 nanomoles/ml): not at all; also recorded: incapable of neutralizing LMWH
LMWH Tinzaparin neutralization (TEG: coagulation time, clot strength) ([2]; Tinzaparin 0.5 U/ml, re-calcified at 37° C): not effective at neutralizing UFH or LMWH Tinzaparin and Enoxaparin in terms of the time to clot formation
clot strength (maximum amplitude, MA) with Tinzaparin [2]: did not form a stable clot
clot strength (maximum amplitude, MA) with Tinzaparin ([2]; listed as protamine): not at all at a high dose
UFH neutralization (TEG: coagulation time, clot strength) [3]: not effective at neutralizing UFH or LMWH Tinzaparin and Enoxaparin in terms of the time to clot formation
coagulation time (R) and kinetics parameter (K), TEG [4]: different blood coagulation profile
neutralization of anticoagulant activity of Tinzaparin in rats (anti-Xa) [5]: could not completely neutralize the LMWH
Enoxaparin neutralization (TEG) [6]: not effective at neutralizing UFH or LMWH Tinzaparin and Enoxaparin in terms of the time to clot formation
blood coagulation (APTT biocompatibility) [7]: different blood coagulation profile
Anti Xa Neutralization (%) of Enoxaparin at 100 μg/ml [8]: 73 ± 4%
UFH neutralization (APTT) ([9]; citrate plasma, UFH 2.0 U/ml, polymers and protamine 0.001 to 0.25 mg/ml): neutralizes UFH and LMWH only in the narrow concentration range
anticoagulant effect at higher concentration (APTT) ([9]; heparinized citrate plasma, 0.001 to 0.25 mg/ml): possesses anticoagulant activity
anticoagulant effect at high concentration (APTT) ([9]; heparinized human citrate plasma, high doses of antidote): had an anticoagulant effect
UFH neutralization (APTT) ([9]; human citrate plasma anti-coagulated with UFH (1.0 U/ml), titrated with JNK-1 0.009 to 8.69 or protamine 0.2 to 222.2 nanomoles/ml): complete neutralization occurred at a higher dosage of protamine; also recorded: acted with less efficiency for UFH within a smaller dose window
complement activation (CH50) [10]: significant complement activation
platelet activation (CD62-PE) [11]: significant levels of platelet activation
Anti Xa Neutralization (%) of Tinzaparin at 100 μg/ml [12]: 77 ± 1%
Blood compatibility at 1 mg/ml [13]: poor [3]
LMWH Enoxaparin neutralization (APTT) [14]: neutralizes UFH and LMWH only in the narrow concentration range
Anti Xa Neutralization (%) of UFH at 50 μg/ml ([15]; 50 μg/ml): 84%
Anti Xa Neutralization (%) of UFH at 100 μg/ml ([15]; 100 μg/ml): 85 ± 0%

— patent US10111902B2, “Polymers for reversing heparin-based anticoagulation” (University of British Columbia, priority 2011, dated 2018)
